# Tested on: BT-474 cancer cells
# Experiment: Inhibition of BT-474 cell proliferation (CellTiter-Glo)
# Type: cell-based
# Settings: Homo sapiens, BT-474 cells, 120 hours
# Method: BT-474 cancer cells were cultured by using RPMI-1640 medium containing 20% FBS. The BT-474 cancer cells were seeded to a white clear bottom 96 well plate (Corning) at 5,000 cells per well 48 hours before the BT-474 cancer cells were treated with Example Compounds. Example Compounds were diluted in dimethylsulfoxide (3-fold diluted, total 11 concentrations) and 1 μL each was injected so that the final concentration was 0.2 nM to 10 μM. For the measurement of living cells, the cells were stored at room temperature for 10 minutes using the CellTiter-Glo cell viability reagent (Promega) after a predetermined time (120 hours) after the treatment of Example Compounds, and then the luminescence intensity was measured using a reader (SynergyNeo, Biotek). Each test was repeated three times.
# The result value was calculated as a cell growth rate (%) compared to a control group. Graphs were plotted and GI50 values were calculated using the GraphPad Prism version 8.0 program, and the results are shown in Table 18 below.
row,Structure (SMILES),GI50 [nM]
1,"C=CC(=O)N1CCC(Nc2cc3c(Nc4cc(C)c(Oc5ccn6ncnc6c5)cc4OC4CN(C)C4)ncnc3cc2OC)CC1 [Example 4, 1-(4-((4-((4-([1,2,4]triazolo[1,5-a]pyridin-7-yloxy)-5-methyl-2-((1-methylazetidin-3-yl)oxy)phenyl)amino)-7-methoxyquinazolin-6-yl)amino)piperidin-1-yl)prop-2-en-1-one]",100 to 500
2,"C=CC(=O)N1CCC(Oc2cc3c(Nc4ccc(Oc5ccn(-c6cnc(OC)nc6)n5)cc4OC)ncnc3cc2OC)CC1 [Example 10, 1-(4-((7-methoxy-4-((2-methoxy-4-((1-(2-methoxypyrimidin-5-yl)-1H-pyrazol-3-yl)oxy)phenyl)amino)quinazolin-6-yl)oxy)piperidin-1-yl)prop-2-en-1-one]",100 to 500
3,"C=CC(=O)N1CCOc2cc3ncnc(Nc4cc(C)c(Oc5ccn6ncnc6c5)cc4OC)c3cc21 [Example 21, 1-(4-((4-([1,2,4]triazolo[1,5-a]pyridin-7-yloxy)-2-methoxy-5-methylphenyl)amino)-7,8-dihydro-6H-[1,4]oxazino[3,2-g]quinazolin-6-yl)prop-2-en-1-one]",100 to 500
4,"C=CC(=O)Nc1cc2c(Nc3cc(C)c(Oc4ccn5ncnc5c4)cc3OC)ncnc2cc1N1CCC(N2CCOCC2)CC1 [Example 22, N-(4-((4-([1,2,4]triazolo[1,5-a]pyridin-7-yloxy)-2-methoxy-5-methylphenyl)amino)-7-(4-morpholinopiperidin-1-yl)quinazolin-6-yl)acrylamide]",50 to 100
5,"C=CC(=O)Nc1cc2c(Nc3cc(C)c(Oc4ccn5ncnc5c4)cc3OC)ncnc2cc1N1CCOCC1 [Example 23, N-(4-((4-([1,2,4]triazolo[1,5-a]pyridin-7-yloxy)-2-methoxy-5-methylphenyl)amino)-7-morpholinoquinazolin-6-yl)acrylamide]",> 500
6,"COc1cc2ncnc(Nc3cc(C)c(Oc4ccn5ncnc5c4)cc3OC)c2cc1NC(=O)/C(F)=C/C1CCCN1C (stereo not shown) [Example 43, (Z)—N-(4-((4-([1,2,4]triazolo[1,5-a]pyridin-7-yloxy)-2-methoxy-5-methylphenyl)amino)-7-methoxyquinazolin-6-yl)-2-fluoro-3-(1-methylpyrrolidin-2-yl)acrylamide]",≤ 50
7,"COc1cc2ncnc(Nc3cc(C)c(Oc4ccn5ncnc5c4)cc3OC)c2cc1NC(=O)/C(F)=C\[C@@H]1CCCN1C [Example 44, (S,E)-N-(4-((4-([1,2,4]triazolo[1,5-a]pyridin-7-yloxy)-2-methoxy-5-methylphenyl)amino)-7-methoxyquinazolin-6-yl)-2-fluoro-3-(1-methylpyrrolidin-2-yl)acrylamide]",≤ 50
8,"COc1cc2ncnc(Nc3cc(C)c(Oc4cc5ncnn5cn4)cc3OC)c2cc1NC(=O)/C(F)=C\[C@H]1CCCN1C [Example 47, (R,E)-N-(4-((4-([1,2,4]triazolo[1,5-c]pyrimidin-7-yloxy)-2-methoxy-5-methylphenyl)amino)-7-methoxyquinazolin-6-yl)-2-fluoro-3-(1-methylpyrrolidin-2-yl)acrylamide]",≤ 50
9,"COc1cc2ncnc(Nc3cc(C)c(Oc4cc5ncnn5cn4)cc3OC)c2cc1NC(=O)/C(F)=C/[C@H]1CCCN1C [Example 48, (R,Z)—N-(4-((4-([1,2,4]triazolo[1,5-c]pyrimidin-7-yloxy)-2-methoxy-5-methylphenyl)amino)-7-methoxyquinazolin-6-yl)-2-fluoro-3-(1-methylpyrrolidin-2-yl)acrylamide]",≤ 50
10,"COc1cc2ncnc(Nc3cc(F)c(Oc4ccn5ncnc5c4)cc3OC)c2cc1NC(=O)/C(F)=C\[C@H]1CCCN1C [Example 49, (R,E)-N-(4-((4-([1,2,4]triazolo[1,5-a]pyridin-7-yloxy)-5-fluoro-2-methoxyphenyl)amino)-7-methoxyquinazolin-6-yl)-2-fluoro-3-(1-methylpyrrolidin-2-yl)acrylamide]",≤ 50
11,"COc1cc2ncnc(Nc3cc(C)c(Oc4ccc5c(c4)ncn5C)cc3OC)c2cc1NC(=O)/C(F)=C/[C@H]1CCCN1C [Example 56, (R,Z)-2-fluoro-N-(7-methoxy-4-((2-methoxy-5-methyl-4-((1-methyl-1H-benzo[d]imidazol-5-yl)oxy)phenyl)amino)quinazolin-6-yl)-3-(1-methylpyrrolidin-2-yl)acrylamide]",≤ 50
12,"COc1cc2ncnc(Nc3cc(C)c(Oc4ccc5c(c4)ncn5C)cc3OC)c2cc1NC(=O)/C(F)=C\[C@H]1CCCN1C [Example 57, (R,E)-2-fluoro-N-(7-methoxy-4-((2-methoxy-5-methyl-4-((1-methyl-1H-benzo[d]imidazol-5-yl)oxy)phenyl)amino)quinazolin-6-yl)-3-(1-methylpyrrolidin-2-yl)acrylamide]",≤ 50
13,"COc1cc2ncnc(Nc3cc(Cl)c(Oc4ccc5c(c4)ncn5C)cc3OC)c2cc1NC(=O)/C(F)=C/[C@H]1CCCN1C [Example 58, (R,Z)—N-(4-((5-chloro-2-methoxy-4-((1-methyl-1H-benzo[d]imidazol-5-yl)oxy)phenyl)amino)-7-methoxyquinazolin-6-yl)-2-fluoro-3-(1-methylpyrrolidin-2-yl)acrylamide]",≤ 50
14,"COc1cc2ncnc(Nc3cc(Cl)c(Oc4ccc5c(c4)ncn5C)cc3OC)c2cc1NC(=O)/C(F)=C\[C@H]1CCCN1C [Example 59, (R,E)-N-(4-((5-chloro-2-methoxy-4-((1-methyl-1H-benzo[d]imidazol-5-yl)oxy)phenyl)amino)-7-methoxyquinazolin-6-yl)-2-fluoro-3-(1-methylpyrrolidin-2-yl)acrylamide]",≤ 50
15,"COc1cc2ncnc(Nc3cc(F)c(Oc4ccc5c(c4)ncn5C)cc3OC)c2cc1NC(=O)/C(F)=C\[C@H]1CCCN1C [Example 60, (R,E)-2-fluoro-N-(4-((5-fluoro-2-methoxy-4-((1-methyl-1H-benzo[d]imidazol-5-yl)oxy)phenyl)amino)-7-methoxyquinazolin-6-yl)-3-(1-methylpyrrolidin-2-yl)acrylamide]",≤ 50
16,"COc1cc2ncnc(Nc3cc(F)c(Oc4ccc5c(c4)ncn5C)cc3OC)c2cc1NC(=O)/C(F)=C/[C@H]1CCCN1C [Example 61, (R,Z)-2-fluoro-N-(4-((5-fluoro-2-methoxy-4-((1-methyl-1H-benzo[d]imidazol-5-yl)oxy)phenyl)amino)-7-methoxyquinazolin-6-yl)-3-(1-methylpyrrolidin-2-yl)acrylamide]",≤ 50

# Other lines, results leading:
row,GI50 [nM],Structure (SMILES)
1,≤ 50,"C=CC(=O)N1CCC(Oc2cc3c(Nc4cc(Cl)c(Oc5cccc(OC)c5)cc4OC)ncnc3cc2OC)CC1 [Example 11, 1-(4-((4-((5-chloro-2-methoxy-4-(3-methoxyphenoxy)phenyl)amino)-7-methoxyquinazolin-6-yl)oxy)piperidin-1-yl)prop-2-en-1-one]"
2,≤ 50,"COc1cc(Oc2ccn3ncnc3c2)c(C)cc1Nc1ncnc2cc(OC)c(OC3CCN(C(=O)C(F)Cl)CC3)cc12 (stereo not shown) [Example 14, 1-(4-((4-((4-([1,2,4]triazolo[1,5-a]pyridin-7-yloxy)-2-methoxy-5-methylphenyl)amino)-7-methoxyquinazolin-6-yl)oxy)piperidin-1-yl)-2-chloro-2-fluoroethan-1-one]"
3,≤ 50,"C=CC(=O)N1CC2CC1CC2Oc1cc2c(Nc3cc(C)c(Oc4ccn5ncnc5c4)cc3OC)ncnc2cc1OC (stereo not shown) [Example 18, 1-(5-((4-((4-([1,2,4]triazolo[1,5-a]pyridin-7-yloxy)-2-methoxy-5-methylphenyl)amino)-7-methoxyquinazolin-6-yl)oxy)-2-azabicyclo[2.2.1]heptan-2-yl)prop-2-en-1-one]"
4,≤ 50,"C=CC(=O)N1CC(Oc2cc3c(Nc4cc(C)c(Oc5ccn6ncnc6c5)cc4OC)ncnc3cc2OC)C1 [Example 19, 1-(3-((4-((4-([1,2,4]triazolo[1,5-a]pyridin-7-yloxy)-2-methoxy-5-methylphenyl)amino)-7-methoxyquinazolin-6-yl)oxy)azetidin-1-yl)prop-2-en-1-one]"
5,≤ 50,"COc1cc(Oc2ccn3ncnc3c2)c(C)cc1Nc1ncnc2ccc(NC(=O)/C=C/CN(C)C)c(Cl)c12 [Example 26, (E)-N-(4-((4-([1,2,4]triazolo[1,5-a]pyridin-7-yloxy)-2-methoxy-5-methylphenyl)amino)-5-chloroquinazolin-6-yl)-4-(dimethylamino)but-2-enamide]"
6,≤ 50,"C=CC(=O)N1CCN(c2ncc3ncnc(Nc4cc(C)c(Oc5ccn6ncnc6c5)cc4OC)c3n2)CC1 [Example 27, 1-(4-(8-((4-([1,2,4]triazolo[1,5-a]pyridin-7-yloxy)-2-methoxy-5-methylphenyl)amino)pyrimido[5,4-d]pyrimidin-2-yl)piperazin-1-yl)prop-2-en-1-one]"
7,≤ 50,"CC#CC(=O)Nc1cc2c(Nc3cc(C)c(Oc4ccn5ncnc5c4)cc3OC)ncnc2cc1OC [Example 28, N-(4-((4-([1,2,4]triazolo[1,5-a]pyridin-7-yloxy)-2-methoxy-5-methylphenyl)amino)-7-methoxyquinazolin-6-yl)but-2-ynamide]"
8,≤ 50,"COc1cc2ncnc(Nc3cc(C)c(Oc4ccn5ncnc5c4)cc3OC)c2cc1NC(=O)/C=C/CNC1CCS(=O)(=O)CC1 [Example 38, (E)-N-(4-((4-([1,2,4]triazolo[1,5-a]pyridin-7-yloxy)-2-methoxy-5-methylphenyl)amino)-7-methoxyquinazolin-6-yl)-4-((1,1-dioxidotetrahydro-2H-thiopyran-4-yl)amino)but-2-enamide]"
9,≤ 50,"COc1cc2ncnc(Nc3cc(C)c(Oc4ccn5ncnc5c4)cc3OC)c2cc1NC(=O)/C=C/CN1CC2(COC2)C1 [Example 40, (E)-N-(4-((4-([1,2,4]triazolo[1,5-a]pyridin-7-yloxy)-2-methoxy-5-methylphenyl)amino)-7-methoxyquinazolin-6-yl)-4-(2-oxa-6-azaspiro[3.3]heptan-6-yl)but-2-enamide]"
